Laboratory results published in the supplement of paper PMC10307832.

Assays:
Assay in all cases: relative viability (nuclei count vs DMSO), 5 days (fraction); higher = more cells survive
BI-D1870 + Decitabine = compound: CC(C)CCN1c2nc(Nc3cc(F)c(O)c(F)c3)ncc2N(C)C(=O)C1C [BI-D1870] + Nc1ncn([C@H]2C[C@H](O)[C@@H](CO)O2)c(=O)n1 [Decitabine] (partner 2 µM)
Procedure, shortened: (§1)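 Values are medians from duplicate plates. Each reflects relative viability, defined as the nuclei count of treated wells over that of vehicle wells. Lung cancer cell lines in 1536-well plates were pin-tool dosed one day after seeding with one drug alone or with a fixed anchor-drug dose plus five library-drug doses (not always all listed) in √10 steps, then fixed, stained and imaged at 4× after 5 days.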

BI-D1870 + Pictilisib = compound: CC(C)CCN1c2nc(Nc3cc(F)c(O)c(F)c3)ncc2N(C)C(=O)C1C [BI-D1870] + CS(=O)(=O)N1CCN(Cc2cc3nc(-c4cccc5[nH]ncc45)nc(N4CCOCC4)c3s2)CC1 [Pictilisib] (partner 1 µM)
Procedure, shortened: as §1

Zebularine + AZD7762 = compound: O=c1ncccn1[C@@H]1O[C@H](CO)[C@@H](O)[C@H]1O [Zebularine] + NC(=O)Nc1cc(-c2cccc(F)c2)sc1C(=O)N[C@H]1CCCNC1 [AZD7762] (partner 0.2 µM)
Procedure, shortened: as §1

Zebularine + Trametinib = compound: O=c1ncccn1[C@@H]1O[C@H](CO)[C@@H](O)[C@H]1O [Zebularine] + CC(=O)Nc1cccc(-n2c(=O)n(C3CC3)c(=O)c3c(Nc4ccc(I)cc4F)n(C)c(=O)c(C)c32)c1 [Trametinib] (partner 0.02 µM)
Procedure, shortened: as §1

Cell Line | relative viability (BI-D1870 + Decitabine; first compound 0.04 µM) | relative viability (BI-D1870 + Decitabine; first compound 0.1265 µM) | relative viability (BI-D1870 + Decitabine; first compound 0.4 µM) | relative viability (BI-D1870 + Decitabine; first compound 1.265 µM) | relative viability (BI-D1870 + Decitabine; first compound 4 µM) | relative viability (BI-D1870 + Pictilisib; first compound 0.04 µM) | relative viability (BI-D1870 + Pictilisib; first compound 0.1265 µM) | relative viability (BI-D1870 + Pictilisib; first compound 0.4 µM) | relative viability (BI-D1870 + Pictilisib; first compound 1.265 µM) | relative viability (BI-D1870 + Pictilisib; first compound 4 µM) | relative viability (Zebularine + AZD7762; first compound 1 µM) | relative viability (Zebularine + AZD7762; first compound 3.162 µM) | relative viability (Zebularine + AZD7762; first compound 10 µM) | relative viability (Zebularine + AZD7762; first compound 31.62 µM) | relative viability (Zebularine + AZD7762; first compound 100 µM) | relative viability (Zebularine + Trametinib; first compound 1 µM) | relative viability (Zebularine + Trametinib; first compound 3.162 µM) | relative viability (Zebularine + Trametinib; first compound 10 µM) | relative viability (Zebularine + Trametinib; first compound 31.62 µM) | relative viability (Zebularine + Trametinib; first compound 100 µM)
NCI-H2347 | 0.671 | 0.656 | 0.619 | 0.657 | 0.627 | 0.797 | 0.466 | 0.662 | 0.649 | 0.44 | 0.858 | 0.788 | 0.609 | 0.462 | 0.305 | 0.294 | 0.299 | 0.237 | 0.312 | 0.235
NCI-H2405 | 0.788 | 0.693 | 0.733 | 0.777 | 0.726 | 0.549 | 0.479 | 0.442 | 0.458 | 0.418 | 0.798 | 0.792 | 0.545 | 0.875 | 0.688 | 0.602 | 0.602 | 0.516 | 0.683 | 0.532
NCI-H3122 | 0.51 | 0.333 | 0.478 | 0.427 | 0.508 | 0.632 | 0.434 | 0.604 | 0.653 | 0.62 | 1.05 | 1.12 | 0.846 | 1.04 | 1.02 | 0.268 | 0.294 | 0.22 | 0.283 | 0.251
PC-3 [JPC-3] | 0.867 | 0.867 | 0.849 | 0.944 | 0.728 | 0.768 | 0.71 | 0.699 | 0.793 | 0.645 | 0.933 | 0.944 | 0.618 | 0.826 | 0.611 | 0.779 | 0.696 | 0.622 | 0.71 | 0.539
PC-14 | 0.203 | 0.148 | 0.278 | 0.198 | 0.223 | 0.769 | 0.688 | 0.557 | 0.537 | 0.438 | 0.471 | 0.324 | 0.141 | 0.144 | 0.14 | 0.7 | 0.517 | 0.197 | 0.117 | 0.101
RERF-LC-KJ | 0.661 | 0.671 | 0.675 | 0.745 | 0.519 | 0.546 | 0.501 | 0.451 | 0.597 | 0.459 | 1.11 | 1 | 0.896 | 1.13 | 0.959 | 1.02 | 0.89 | 0.719 | 0.87 | 0.916
